According to patent US20060217394A1, “Treatment of anhedonia” (priority 2005, published 2006):

Key:
[1] = test system: patients receiving SSRI or SNRI treatment for major depressive disorder; assay: Retrospective review of patients receiving SSRI or SNRI treatment for major depressive disorder: late-appearing anhedonic symptoms; format: in vivo; conditions: individual patient
Excerpt: Although in the majority of so afflicted patients the diagnosis will be apparent during this interval, it should be understood that iatrogenic anhedonia may appear earlier or later during any course of treatment with medications that increase serotonin transmission efficiency with or without similar increases in the efficiency and availability of norepinephrine. The rather substantial number of patients suffering from the condition over diverse population samples may be postulated to be due to a genetic predisposition for the condition.
Patients in whom SSRIs produced excellent remission of major depressive disorder for the period shown in the 5th column
The result of decreased dopaminergic efficiency and/or availability may be dysphoric interference with the ability to experience the normal range of positive affect over the range from mild interest to pleasant excitement, and from ordinary contentment to great joy. Such decreased dopaminergic transmission efficiency may be caused by agents that block the serotonin transporter alone, and/or those that block both the serotonin transporter and the norepinephrine transporter, and/or those that increase the synthesis and release of both norepinephrine and serotonin and any mechanism whereby the efficiency of serotonergic transmission is enhanced.

[2] = test system: patients afflicted with anhedonia; assay: Treatment of iatrogenic anhedonia in patients with agents enhancing dopaminergic availability and/or efficiency; format: in vivo; conditions: about 2.5 mg prn, no more than once daily, on as few as two to five days per week
[3] = period for which the SSRI produced excellent remission of major depressive disorder

| SMILES | SSRI duration before new symptoms [1, 3] | SSRI duration before new symptoms ([1]; period of excellent remission, some patients 10 years intermittent (stopped Rx each time anomie experienced)) [year] | improvement of anhedonia [2] |
| --- | --- | --- | --- |
| CN(C)CCCC1(c2ccc(F)cc2)OCc2cc(C#N)ccc21 (stereo not drawn) [citalopram] | 6 months |  |  |
| CNCCC(Oc1ccc(C(F)(F)F)cc1)c1ccccc1 (stereo not drawn) [fluoxetine] | 2 years | 1 |  |
| CN[C@H]1CC[C@@H](c2ccc(Cl)c(Cl)c2)c2ccccc21 [sertraline] | 2 years |  |  |
| COC(=O)[C@H](c1ccccc1)[C@H]1CCCCN1 [dexmethylphenidate] |  |  | Satisfactory and ongoing improvement |
| Fc1ccc([C@@H]2CCNC[C@H]2COc2ccc3c(c2)OCO3)cc1 [paroxetine] | 10 years |  |  |
